Measured values: paper PMC7700029, “Repurposing Napabucasin as an Antimicrobial Agent against Oral Streptococcal Biofilms” (BioMed Research International, 2020)
Converted amounts (≈) assume the structure as drawn.

Key:
[1] = test system: Streptococcus gordonii DL1; experiment: Bacterial susceptibility test, microdilution in BHI (MIC/MBC); format: cell-based; details: S. gordonii, planktonic cells
Protocol: (§1) Streptococcus mutans UA159, Streptococcus gordonii DL1, and Streptococcus sanguinis ATCC 10556 were kindly provided by the State Key Laboratory of Oral Diseases (Sichuan University, Chengdu, China). S. mutans, S. gordonii, and S. sanguinis were routinely grown at 37°C under aerobic condition (5% CO2) in brain heart infusion broth (BHI; Difco, Sparks, MD). Inoculum for the experiment was adjusted to 1 × 10^8CFU/mL for S. mutans, S. gordonii, and S. sanguinis based on the OD600 nm versus CFU/mL graph of each bacterium and further 1 : 100 diluted in the growth culture. When needed, medium was supplemented with 1% sucrose (designated BHIS). The minimum inhibitory concentration (MIC) and minimum bactericidal concentration (MBC) of NAP against S. mutans, S. gordonii, and S. sanguinis were determined by a microdilution method in BHI, as described previously. The concentrations of NAP ranged from 0.97 to 1000 μg/mL (twofold dilutions). BHI broth containing equivalent DMSO (1% to 0.001%, v/v) was used as a solvent control and ran simultaneously to control for the possible growth inhibition caused by the added DMSO. CHX was used as a positive control, cell control (test bacteria and BHI broth) was used as a negative control, and BHI broth was used as a blank control.

[2] = test system: Streptococcus mutans UA159; experiment: as above; format: cell-based; details: S. mutans, planktonic cells
Protocol: as §1

[3] = test system: Streptococcus sanguinis ATCC 10556; experiment: as above; format: cell-based; details: ATCC10556, S. sanguinis, planktonic cells
Protocol: as §1

[4] = test system: S. mutans biofilm; experiment: Biofilm formation inhibition, crystal violet (MBIC); format: cell-based, Streptococcus mutans; details: 24 h, 90% or more inhibition of biofilm formation
Protocol: (§2) The minimum biofilm inhibition concentration (MBIC) was used to evaluate the effect of NAP on biofilm formation. S. mutans, S. gordonii, or S. sanguinis (1 × 10^7CFU/mL, 10 μL/well) were grown in BHIS with twofold serial dilution of NAP (200 μL/well) ranging from 0.12 to 125 μg/mL at 37°C for 24 h. A parallel study was also performed with BHIS as a negative control. Then, the supernatants from the wells were decanted, and the adherent biofilm was washed three times with PBS to remove the planktonic cells. Fixed with methanol for 15 min and air-dried at room temperature, the biofilm was stained with 0.1% (wt/vol) crystal violet (Sigma) for 5 min, rinsed with deionized water until blank control wells were colorless, and added 200 μL of 95% ethanol to each crystal violet-stained well. Subsequently, the plate was rocked 30 min at room temperature, and the absorbance at 595 nm was recorded. The percentage of inhibition was calculated using the equation: (A595ofnegativecontrol − A595ofthetestgroup)/A595ofnegativecontrol × 100%.

[5] = test system: S. gordonii biofilm; experiment: as above; format: cell-based, Streptococcus gordonii; details: 24 h, 90% or more inhibition of biofilm formation
Protocol: as §2

[6] = test system: S. sanguinis biofilm; experiment: as above; format: cell-based, Streptococcus sanguinis; details: 24 h, 90% or more inhibition of biofilm formation
Protocol: as §2

[7] = test system: S. mutans biofilm; experiment: Reduction of 1-day-developed biofilm, crystal violet (MBRC); format: cell-based, Streptococcus mutans; details: S. mutans 1-day-developed biofilm, 24 h, 90% or more reduction
Protocol: (§3) The effect of NAP on the 1-day-developed biofilm was examined by the minimum biofilm reduction concentration (MBRC). S. mutans, S. gordonii, or S. sanguinis (1 × 10^7CFU/mL, 200 μL/well) in BHIS was added to a 96-well polystyrene tissue culture plate. After anaerobic incubation at 37°C for 24 h, the supernatants were removed and washed with PBS three times without disrupting the integrity of biofilms. Fresh BHIS containing NAP ranging from 0.12 to 125 μg/mL were added to each well and incubated at 37°C for 24 h. The negative control was biofilms in BHIS without NAP. The biofilm was fixed, air-dried, stained, and quantified as described above.

[8] = test system: S. gordonii biofilm; experiment: as above; format: cell-based, Streptococcus gordonii; details: S. gordonii 1-day-developed biofilm, 24 h, 90% or more reduction
Protocol: as §3

[9] = test system: S. sanguinis biofilm; experiment: as above; format: cell-based, Streptococcus sanguinis; details: S. sanguinis 1-day-developed biofilm, 24 h, 90% or more reduction
Protocol: as §3

[10] = test system: human gingival epithelial cells (HGE); experiment: In vitro cytotoxicity/viability, CCK-8; format: cell-based; details: Epithelial cell, 5 min, 5 min exposure
Protocol: (§4) Cell viability was evaluated by using the Cell Counting Kit-8 (CCK-8, Dojindo, Kumamoto, Japan) assay as described by Park et al.. Test cells were human oral keratinocytes (HOK), human gingival epithelia (HGE), and macrophage RAW264.7 (RAW264.7). Cells were plated in 96-well plates at 10,000 cells/well in minimum essential medium with the Dulbecco's modified Eagle's medium (DMEM) supplemented with 10% fetal bovine serum and 1% antibiotic-antimycotic. The cells were grown in a humidified environment with 5% CO2 at 37°C for 24 hours. Considering the short exposure duration of oral cells to mouth rinses, cells were treated with medium containing NAP (0.12 to 62.5 μg/mL) and positive control CHX for 5 min [27–29]. Then, the cells were washed with PBS twice and were added with the fresh medium (200 μL/well). Each well was added with 10 μL of CCK-8, and after incubation in the CO2 incubator for 1 h to 1.5 h, absorbance was measured at the wavelength of 450 nm. The cell viability was calculated according to the following formula: (%) = (A450oftestgroup − A450ofblankcontrol)/(A450ofnegativecontrol − A450ofblankcontrol) × 100%.

[11] = test system: human oral keratinocytes (HOK); experiment: In vitro cytotoxicity/viability, CCK-8; format: cell-based; details: Keratinocyte, 5 min, 5 min exposure, read-out: IC50 (cell viability)
Protocol: as §4

[12] = test system: macrophage RAW264.7; experiment: In vitro cytotoxicity/viability, CCK-8; format: cell-based; details: Mus musculus, 5 min, RAW264.7, 5 min exposure, read-out: IC50 (cell viability)
Protocol: as §4

[13] = test system: oral streptococcal multispecies biofilms; experiment: Multispecies biofilm imaging (dead/live, EPS staining, CLSM); format: cell-based, S. mutans, S. gordonii, S. sanguinis; details: 5 min three times per day for 3 days; for structural integrity of multispecies biofilms: 0.2% CHX
Protocol: The multispecies biofilms were cultivated in accordance with a previous study. Overnight cultures of S. mutans, S. gordonii, and S. sanguinis were simultaneously inoculated (inoculum ratio = 1 : 1 : 1). The chemotaxis chamber μ-Slide, which has extremely low values of birefringence and autofluorescence, was used for bacterial culture and confocal microscopy. Bacterial suspensions (1 × 10^5CFU/mL for each strain) were mixed in 300 μL BHI containing 1% sucrose (BHIS) in the μ-Slide (8 wells, 80826, Ibidi) at 37°C for 24 h. Then, biofilms were exposed to PBS, 62.5 μg/mL NAP, and 0.2% CHX for 3 days (5 min, three times per day). This short-term repeated treatment was to simulate the daily exposure to the mouth rinses.
For dead/live imaging, biofilms were stained with fluorescent LIVE/DEAD BacLight Bacterial Viability stain (Molecular Probes, Invitrogen) containing SYTO 9 and propidium iodide according to the manufacturer's instructions. The labeled biofilms were imaged with a DMIRE2 confocal laser scanning microscope (Leica, Wetzlar, Germany) equipped with a 60x oil immersion objective lens.
For extracellular polysaccharide (EPS) staining, the bacterial cell and the EPS were stained with SYTO 9 (Molecular Probes) and Alexa Fluor 647-labeled dextran conjugate (Molecular Probes) as described previously. The biofilms were captured with a Leica DMIRE2 confocal laser scanning microscope as in live/dead imaging.
All three-dimensional reconstructions of the biofilms were performed with Imaris 7.0.0 (Bitplane, Zürich, Switzerland). The quantification of the dead/live and EPS/bacteria volume ratio was, respectively, performed with Image-Pro Plus (Media Cybernetics, Silver Spring, MD, USA) and COMSTAT (http://www.image-analysis.dk).

[14] = test system: oral streptococcal multispecies biofilms; experiment: Multispecies biofilm composition by FISH and qPCR; format: cell-based, S. mutans, S. gordonii, S. sanguinis; details: 62.5 μg/mL NAP, 5 min three times per day for 3 days; for total amount of streptococci: 0.2% CHX
Protocol: The multispecies biofilms were cultivated in accordance with a previous study. Overnight cultures of S. mutans, S. gordonii, and S. sanguinis were simultaneously inoculated (inoculum ratio = 1 : 1 : 1). The chemotaxis chamber μ-Slide, which has extremely low values of birefringence and autofluorescence, was used for bacterial culture and confocal microscopy. Bacterial suspensions (1 × 10^5CFU/mL for each strain) were mixed in 300 μL BHI containing 1% sucrose (BHIS) in the μ-Slide (8 wells, 80826, Ibidi) at 37°C for 24 h. Then, biofilms were exposed to PBS, 62.5 μg/mL NAP, and 0.2% CHX for 3 days (5 min, three times per day). This short-term repeated treatment was to simulate the daily exposure to the mouth rinses. For fluorescent in situ hybridization imaging, biofilms were fixed in 4% paraformaldehyde overnight and investigated by species-specific probes. The multispecies biofilms were imaged with a confocal laser scanning microscope (FV1000, Olympus, Tokyo, Japan). Total DNA of biofilms were isolated and purified using a TIANamp Bacteria DNA kit (TIANGEN, Beijing, China). The purity and concentration of DNA were detected with a NanoDrop 2000 spectrophotometer (Thermo Scientific, Waltham, MA, USA). The extracts were stored at -20°C until use. TaqMan real-time polymerase chain reaction (Life Technologies, Carlsbad, CA, USA) was used to quantify the absolute number of S. mutans, S. gordonii, and S. sanguinis as described by the manufacturer (Takara, Dalian, China).

[15] = test system: multispecies biofilms on human enamel slabs; experiment: Biofilm-induced demineralization of human enamel slabs, transverse microradiography; format: cell-based, S. mutans, S. gordonii, S. sanguinis; details: 62.5 μg/mL NAP, 0.2% CHX, 5 min three times per day for 5 days; compared to negative control
Excerpt: Human teeth free of white spots, cracks, and other defects that had been extracted for periodontal or impacted reasons were collected under a protocol approved by the Ethics Committee of West China Hospital of Stomatology, Sichuan University (WCHSIRB-D-2018-107). Crowns were separated from roots and cut into four sections measuring 5mm × 5mm × 2mm by using a diamond-coated saw (Struers Minitom; Struers, Copenhagen, Denmark) under continuous water cooling. The enamel slabs were embedded in polymethylmethacrylate and painted with two layers of acid-resistant nail varnish, leaving a 4mm × 4mm window of the exposed enamel surface. Then, these surfaces were polished progressively with waterproof silicon carbide abrasive papers (800–4000 grit; Struers, Copenhagen, Denmark) and were ultrasonically cleaned in a deionized water for 5 min to remove the residual abrasives. All slabs were sterilized with ethylene oxide. The 30 specimens were randomly divided into 3 groups: PBS, 62.5 μg/mL NAP, and 0.2% CHX. Enamel slabs obtained from the same tooth were evenly distributed to each test group.
Overnight cultures of S. mutans, S. gordonii, and S. sanguinis (1 × 10^7CFU/mL) were simultaneously inoculated on enamel slabs in a 24-well cell culture plate with BHIS at 37°C. Slabs with biofilms were then exposed to PBS, 62.5 μg/mL NAP, and 0.2% CHX for 5 days (5 min, three times per day). The 5-day demineralization duration was in accordance with previous studies. All specimens were then washed in PBS and refreshed with BHIS after every exposure. After 5 days of treatment, specimens were taken out and rinsed with PBS to remove the biofilms. Then, specimens were cut again and polished with a hand plane—parallel from both sides with waterproof silicon carbide abrasive papers (800–4000 grit; Struers, Copenhagen, Denmark) to thickness ranging around […]. X-ray films of experimental lesions were acquired with an X-ray generator (Softex, Japan) equipped with a microradiography camera and then were further examined using a Zeiss AXIO Imager A2 microscope (Carl Zeiss, Germany). Quantitative data was acquired by a calibrated analysis system TMR2006 (Inspektor Research Systems BV, Netherlands). Data are obtained as the mean of 10 separate samples.

[16] = parameters: method as in PMID 28573435, PMID 31241371; details: orally 240 mg twice a day, patients with advanced malignancies; cited from earlier work
[17] = 62.5 μg/mL NAP compared to 0.2% CHX

| MIC [1] [mg/L] | MIC [2] [mg/L] | MIC [3] [mg/L] | SMILES | MBC [1] [mg/L] | MBC [2] [mg/L] | MBC [3] [mg/L] | MBIC [4] [µg/mL] | MBIC [5] [µg/mL] | MBIC [6] [µg/mL] | MBRC [7] [µg/mL] | MBRC [8] [µg/mL] | MBRC [9] [µg/mL] | IC50 [10] [mg/L] | IC50 [11] [mg/L] | IC50 [12] [mg/L] | structural integrity of multispecies biofilms ([13]; 62.5 μg/mL NAP) | total amount of streptococci [14] | depth of biofilm-induced lesion [15] | mineral loss of enamel [15] | other results |
| --- | --- | --- | --- | --- | --- | --- | --- | --- | --- | --- | --- | --- | --- | --- | --- | --- | --- | --- | --- | --- |
| 3.91 (≈ 7.74 µM) | 1.95 (≈ 3.86 µM) | 0.49 (≈ 0.969 µM) | [H]/N=C(\N/C(=N/[H])NCCCCCCNC(=N)NC(=N)Nc1ccc(Cl)cc1)Nc1ccc(Cl)cc1 [CHX, Chlorhexidine] | 7.81 (≈ 15.5 µM) | 7.81 (≈ 15.5 µM) | 3.91 (≈ 7.74 µM) | 0.98 | 3.91 | 1.95 | 62.50 | 15.63 | 3.91 | 31.2 to 62.5 (≈ 61.8 to 124 µM) | 31.2 to 62.5 (≈ 61.8 to 124 µM) | 31.2 to 62.5 (≈ 61.8 to 124 µM) | disrupted the structural integrity of multispecies biofilms significantly | significantly reduced the total amount of streptococci | significantly reduced | significantly reduced | – |
| 0.49 (≈ 2.04 µM) | 3.91 (≈ 16.3 µM) | 0.49 (≈ 2.04 µM) | CC(=O)c1cc2c(o1)C(=O)c1ccccc1C2=O [NAP, 2-acetylfuro-1,4-naphathoquinone] | 0.98 (≈ 4.08 µM) | 15.6 (≈ 65.1 µM) | 15.6 (≈ 65.1 µM) | 1.95 | 0.49 | 1.95 | 62.50 | 15.63 | 3.91 | > 62.5 | > 62.5 | > 62.5 | disrupted the structural integrity of multispecies biofilms significantly | significantly reduced the total amount of streptococci | significantly reduced | significantly reduced | EPS/bacteria ratio [13, 17]: equivalent; dead/live cell ratio [13, 17]: equivalent dead/live cell ratio; bacteria within the biofilms (volume) ([13]; 62.5 μg/mL NAP vs 0.2% CHX): further reduced the bacteria within the oral streptococcal biofilms as compared to CHX; EPS production in the biofilm ([13]; 62.5 μg/mL NAP): significantly inhibit EPS production; multispecies biofilm composition [14]: inhibited S. mutans and S. sanguinis but increased the proportion of the commensal S. gordonii; adverse events [16]: generally mild |
